US20250325485A1, “STABLE COMPOSITIONS OF FOXY-5 HEXAPEPTIDE WITH HIGH SOLUBILITY” (WNTRESEARCH AB, priority 2021, published 2025)
≈ marks a conversion by molar mass, not a printed value. Read-outs that look alike come from different tables or passages of the source. Peptide text beside a SMILES is read from it. * marks the point of attachment. For = O=C*

What was measured:
[1] = pKa by potentiometric titration (Sirius T3); assay type: physicochemical; conditions: ISA water, 25° C., read-out: pKa [measured]
Protocol: 2.0.0.0 software. An automated aqueous titration method was used with initial values of 1.0 mg of solid API dissolved in 1.5 mL of ISA water and three sequential titrations on the same sample. In all three titrations, the sample solution was adjusted with 0.5 M KOH to a starting pH of 12 and slowly titrated with 0.5 M HCl to a final pH of 2.
Each titration curve was fit using the SiriusT3Refine Vers. 2.0.0.0 software, and the corresponding pKa values were calculated. […]

[2] = Solubility / lyophilization concentration of Foxy-5 drug substance (background statements); assay type: physicochemical; conditions: for solubility: water
Description: The current manufacturing process of Foxy-5 applies a product concentration for the final lyophilization of only 3 g/L due to the limited solubility of the salt free drug substance (DS) in water. This presents a bottleneck which severely limits the production throughput for the commercial manufacture of Foxy-5.
While this achievement is impressive, it nonetheless remains problematic to produce Foxy-5 on commercial scale when the final step requires such a high dilution.
Consequently, an increase of batch size by other solubilizing techniques than solvent polarity adjustments was proposed.

[3] = High pH treatment of aqueous Foxy-5 solution tracked by HPLC; assay type: physicochemical; conditions: after 2 hours at pH=9
Protocol: After stirring of the Foxy-5 solution for 2 hours at pH 9 (see FIG. 4), the aspartimide peak in the HPLC chromatogram completely disappeared (<LOD). It is known that ring opening of aspartimides occurs at high pH, leading to the formation of either the parent compound and the […] and the D-Asp derivatives. However, significant dimer formation was observed (2.5% after 2 hours at pH=9). The identification of the dimer in the chromatogram was confirmed by co-elution with separately synthesized reference material.

[4] = Stability study at 40° C. for two and four weeks (HPLC purity, appearance); assay type: physicochemical; conditions: closed containers
Protocol: A stability study of the compositions according to the first aspect (and the previously prepared trisodium salt) at 40° C. for two and four weeks was performed. Some general trends were found. […] The purity of the tri-salts varied more than the purity of the di-salts (HPLC purity 78-95% at 4 weeks for the tri-salts vs. 87-96% at 4 weeks for the di-salts). Furthermore, as appears from FIG. 6, the absolute purity of the compositions comprising amino acids was generally higher after 4 weeks at 40° C. when compared with compositions comprising other salt formers (value at 4 weeks: ˜90% vs. ˜85% for tri-salts and ˜95% vs. ˜90% for di-salts).
The stability test data for all formed compositions and the starting material itself (Foxy-5 free acid) were measured at 0, 2 and 4 weeks storage @40° C. and included in FIG. 10.
The following parameters for the substance-specific UPLC method were employed for the purity measurements of the stability samples: […]

[5] = cited from earlier work

In the case of `CSCC[C@H](NC=O)C(=O)N[C@@H](CC(=O)O)C(=O)NCC(=O)N[C@@H](CS)C(=O)N[C@@H](CCC(=O)O)C(=O)N[C@@H](CC(C)C)C(=O)O` [Foxy-5, For-Met-Asp-Gly-Cys-Glu-Leu-OH] (For-MDGCEL-OH), the pKa ([1]; ASP carboxylic (acidic)) is reported as 3.98, the pKa ([1]; CYS thiol (acidic)) is reported as 9.01 and the pKa ([1]; GLU carboxylic (acidic)) is reported as 4.79. For the same compound, the pKa ([1]; terminal carboxylic (acidic)) was 3.39, the “DS concentration applicable in alternative lyophilization process” value ([2]; aqueous 30% acetonitrile solution as solvent) was “up to 7 g/L” and the aqueous solubility ([2]; free Foxy-5 hexapeptide, for comparison, listed as free Foxy-5 peptide) was 3000 µg/mL (≈ 4.32 mM). It also gave a solubility ([2]; free Foxy-5 hexapeptide, for comparison, read-out: aqueous solubility) of about 3000 µg/mL (≈ 4.32 mM), a solubility ([2]; read-out: product concentration for the final lyophilization, limited by solubility of salt free drug substance in water) of 3000 µg/mL and a dimer formation [3] of 2.5%.
For `CSCC[C@H](NC=O)C(=O)N[C@@H](CC(=O)O)C(=O)NCC(=O)N[C@@H](CS)C(=O)N[C@@H](CCC(=O)O)C(=O)N[C@@H](CC(C)C)C(=O)O` [DEA-P1] (For-MDGCEL-OH), the appearance after storage ([4]; 2 and 4 weeks at 40° C.) was “glassy appearance”.
In the case of `CSCC[C@H](NC=O)C(=O)N[C@@H](CC(=O)O)C(=O)NCC(=O)N[C@@H](CS)C(=O)N[C@@H](CCC(=O)O)C(=O)N[C@@H](CC(C)C)C(=O)O` [NMG-P6] (For-MDGCEL-OH), the appearance after storage ([4]; 2 weeks at 40° C.) is reported as “sticky, glassy appearance”.
For `NC(CO)(CO)CO` [tromethamine], the “pKa of the salt-forming base” value [5] is listed as 8.0.
